Experiments:
α4β1 integrin = molecular target: T1, α4β1 integrin (Homo sapiens, UniProt P05556+P13612); test: α4β1 Cell Capture Assay; format: cell-based; settings: capture of α4β1 expressing Jurkat cells on VCAM-1 extracellular domain-coated plate
T1 construct: monitoring the capture of α4β1 expressing cells; endogenous in cells; host or cells: Jurkat
Outline: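 Jurkat cells in DMEM with 0.5% FBS and 0.5 mM MnCl2 preincubated 1 h at 37° C with compound, then allowed 30 min at 37° C to bind plates coated with recombinant VCAM-1 extracellular domain (0.5 μg/ml). After glutaraldehyde fixation and Hoechst staining, bound cells counted by imaging; EC50 from concentration–response.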

α4β7 integrin = molecular target: T2, α4β7 integrin (Homo sapiens, UniProt P13612+P26010); test: α4β7 Integrin Cell Capture Assay; format: cell-based; settings: capture of α4β7 integrin expressing RPM18866 cells on MadCAM-1 extracellular domain-coated plate
T2 construct: monitoring the capture of α4β7 integrin expressing cells; endogenous in cells; host or cells: RPMI8866
T2 sequence (P13612 34-1032): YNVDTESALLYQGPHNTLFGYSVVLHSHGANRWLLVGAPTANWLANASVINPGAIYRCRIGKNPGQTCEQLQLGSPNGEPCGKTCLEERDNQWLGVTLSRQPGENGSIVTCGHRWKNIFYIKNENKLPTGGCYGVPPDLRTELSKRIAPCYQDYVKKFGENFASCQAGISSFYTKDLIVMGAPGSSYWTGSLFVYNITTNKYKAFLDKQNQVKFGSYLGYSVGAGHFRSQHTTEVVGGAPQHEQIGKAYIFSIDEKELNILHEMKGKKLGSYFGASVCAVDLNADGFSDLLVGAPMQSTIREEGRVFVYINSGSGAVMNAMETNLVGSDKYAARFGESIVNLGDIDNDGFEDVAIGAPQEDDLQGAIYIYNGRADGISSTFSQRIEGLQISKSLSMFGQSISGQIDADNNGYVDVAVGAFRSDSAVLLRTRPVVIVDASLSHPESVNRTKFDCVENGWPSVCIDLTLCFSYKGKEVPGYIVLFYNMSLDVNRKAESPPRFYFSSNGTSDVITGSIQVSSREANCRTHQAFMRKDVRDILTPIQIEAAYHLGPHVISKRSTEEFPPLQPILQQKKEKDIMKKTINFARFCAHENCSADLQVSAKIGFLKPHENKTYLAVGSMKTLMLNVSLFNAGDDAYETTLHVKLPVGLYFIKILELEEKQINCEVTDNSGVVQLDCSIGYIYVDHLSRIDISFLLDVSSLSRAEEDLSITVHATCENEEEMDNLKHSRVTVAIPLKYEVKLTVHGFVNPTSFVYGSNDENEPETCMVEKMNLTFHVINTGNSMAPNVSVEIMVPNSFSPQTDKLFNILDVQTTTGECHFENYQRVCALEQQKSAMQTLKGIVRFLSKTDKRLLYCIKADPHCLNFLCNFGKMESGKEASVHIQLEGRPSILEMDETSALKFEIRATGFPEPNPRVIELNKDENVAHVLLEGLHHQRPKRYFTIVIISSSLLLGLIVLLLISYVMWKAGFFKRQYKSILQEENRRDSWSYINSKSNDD
T2 sequence (P26010 20-798): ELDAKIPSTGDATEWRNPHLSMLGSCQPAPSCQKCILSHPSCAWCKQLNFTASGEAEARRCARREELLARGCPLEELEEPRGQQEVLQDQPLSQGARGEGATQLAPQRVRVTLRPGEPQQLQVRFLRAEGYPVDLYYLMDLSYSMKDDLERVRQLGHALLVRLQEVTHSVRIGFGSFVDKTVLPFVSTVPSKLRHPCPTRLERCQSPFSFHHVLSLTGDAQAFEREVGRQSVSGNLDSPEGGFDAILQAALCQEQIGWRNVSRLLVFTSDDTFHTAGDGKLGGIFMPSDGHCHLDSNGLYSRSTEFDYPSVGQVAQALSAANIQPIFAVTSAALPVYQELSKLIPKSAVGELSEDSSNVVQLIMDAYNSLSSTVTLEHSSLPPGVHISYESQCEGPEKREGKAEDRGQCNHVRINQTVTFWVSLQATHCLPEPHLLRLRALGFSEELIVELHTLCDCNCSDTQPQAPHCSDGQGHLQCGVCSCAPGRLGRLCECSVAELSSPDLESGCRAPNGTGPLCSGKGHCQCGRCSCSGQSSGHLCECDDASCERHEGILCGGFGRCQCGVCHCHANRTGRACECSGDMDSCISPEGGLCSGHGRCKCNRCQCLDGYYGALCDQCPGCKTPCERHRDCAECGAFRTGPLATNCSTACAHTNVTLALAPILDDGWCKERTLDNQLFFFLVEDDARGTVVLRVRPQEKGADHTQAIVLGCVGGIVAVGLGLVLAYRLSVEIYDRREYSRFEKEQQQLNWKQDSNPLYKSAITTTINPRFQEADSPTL
Outline: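 RPM18866 cells were preincubated with compound for 1 h at 37 °C in DMEM with 0.5% FBS and 0.5 mM MnCl2. They were then allowed to adhere for 30 min at 37 °C to BSA-blocked plates coated with MAdCAM-1 extracellular domain (1.0 µg/mL). After glutaraldehyde/Hoechst fixation and washing, bound cells were counted by imaging, and EC50 was fitted from counts versus concentration.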

T1 sequence (P05556 21-798, one chain of several): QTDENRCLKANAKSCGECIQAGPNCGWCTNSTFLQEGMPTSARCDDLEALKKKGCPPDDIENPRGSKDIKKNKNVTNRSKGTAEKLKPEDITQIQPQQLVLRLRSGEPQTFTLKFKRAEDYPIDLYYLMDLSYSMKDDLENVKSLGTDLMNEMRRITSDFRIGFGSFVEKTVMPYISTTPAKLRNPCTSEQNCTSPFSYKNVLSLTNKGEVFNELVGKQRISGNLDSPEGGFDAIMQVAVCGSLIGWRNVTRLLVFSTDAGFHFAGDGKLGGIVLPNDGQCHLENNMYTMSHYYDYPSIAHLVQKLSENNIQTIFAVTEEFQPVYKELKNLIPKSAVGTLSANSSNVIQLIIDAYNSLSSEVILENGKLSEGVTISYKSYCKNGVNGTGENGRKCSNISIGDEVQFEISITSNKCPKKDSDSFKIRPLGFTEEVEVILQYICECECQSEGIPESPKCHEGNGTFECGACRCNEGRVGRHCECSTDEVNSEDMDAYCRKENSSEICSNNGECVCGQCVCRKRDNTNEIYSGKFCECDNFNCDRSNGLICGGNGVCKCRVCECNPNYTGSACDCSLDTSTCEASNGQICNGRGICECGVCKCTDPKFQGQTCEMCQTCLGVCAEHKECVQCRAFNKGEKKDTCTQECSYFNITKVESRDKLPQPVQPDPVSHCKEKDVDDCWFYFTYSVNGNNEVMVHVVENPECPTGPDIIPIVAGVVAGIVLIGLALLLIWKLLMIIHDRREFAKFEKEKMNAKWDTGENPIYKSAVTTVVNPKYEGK

| EC50 (α4β1 integrin; Table 1) [nM] | EC50 (α4β7 integrin; Table 1) [nM] | EC50 (α4β1 integrin; Table 2) [nM] | EC50 (α4β7 integrin; Table 2) [nM] | SMILES |
| --- | --- | --- | --- | --- |
| 18.5 | 0.5 |  |  | Cc1cc(C(F)(F)F)c(-c2ccc(C[C@H](NC(=O)c3c(F)cc(N4CCOC[C@@H]4C(F)(F)F)cc3F)C(=O)O)cc2)c(=O)n1C [Example 3, (S)-2-(2,6-difluoro-4-((R)-3-(trifluoromethyl)morpholino)benzamido)-3-(4-(1,6-dimethyl-2-oxo-4-(trifluoromethyl)-1,2-dihydropyridin-3-yl)phenyl)propanoic acid] |
| 2.9 | 0.1 |  |  | Cc1cc(N2CCOC[C@@H]2C(F)(F)F)cc(F)c1C(=O)N[C@@H](Cc1ccc(-n2c(=O)c3c(n(C)c2=O)CCOC3)cc1)C(=O)O [Example 59, (S)-2-(2-fluoro-6-methyl-4-((R)-3-(trifluoromethyl)morpholino)benzamido)-3-(4-(1-methyl-2,4-dioxo-1,5,7,8-tetrahydro-2H-pyrano[4,3-d]pyrimidin-3(4H)-yl)phenyl)propanoic acid] |
|  |  | 4.5 | 0.15 | Cn1c(=O)n(-c2c(F)cc(C[C@H](NC(=O)c3c(F)cc(N4CCOC[C@@H]4C(F)(F)F)cc3F)C(=O)O)cc2F)c(=O)c2ccncc21 [Example 82] |
|  |  | 7.7 | 0.3 | Cc1cc(C[C@H](NC(=O)c2c(C)cc(N3CCOC[C@@H]3C(F)(F)F)cc2F)C(=O)O)ccc1-c1c(C)nc(C)n(C)c1=O [Example 40] |
| 4.8 | 0.1 |  |  | Cc1cc(N2CCOC[C@@H]2C(F)(F)F)cc(F)c1C(=O)N[C@@H](Cc1ccc(-n2c(=O)c3c(n(C)c2=O)COC3)cc1)C(=O)O [Example 66, (S)-2-(2-fluoro-6-methyl-4-((R)-3-(trifluoromethyl)morpholino)benzamido)-3-(4-(1-methyl-2,4-dioxo-1,2,5,7-tetrahydrofuro[3,4-d]pyrimidin-3(4H)-yl)phenyl)propanoic acid] |
|  |  | 11.6 | 0.2 | Cc1cc(C[C@H](NC(=O)c2c(C)cc(N3CCOC[C@@H]3C(F)(F)F)cc2F)C(=O)O)ccc1-c1c(C)n(C)c(=O)n(C)c1=O [Example 31] |
|  |  | 4.9 | 0.16 | Cc1cc(N2CCOC[C@@H]2C(F)(F)F)cc(F)c1C(=O)N[C@@H](Cc1ccc(-n2c(=O)c3ccc(C#N)cc3n(C)c2=O)nc1)C(=O)O [Example 76] |
| 10.6 | 0.21 |  |  | Cc1cc(N2CCOC[C@@H]2C(F)(F)F)cc(F)c1C(=O)N[C@@H](Cc1ccc(-n2c(=O)c3ccncc3n(C)c2=O)nc1)C(=O)O [Example 15, (S)-2-(2-fluoro-6-methyl-4-((R)-3-(trifluoromethyl)morpholino)benzamido)-3-(6-(1-methyl-2,4-dioxo-1,4-dihydropyrido[3,4-d]pyrimidin-3(2H)-yl)pyridin-3-yl)propanoic acid] |
|  |  | 34.1 | 1.1 | Cn1c(=O)c(-c2ccc(C[C@H](NC(=O)c3c(F)cc(N4CCOC[C@@H]4C(F)(F)F)cc3F)C(=O)O)cc2)cc2cnccc21 [Example 35] |
|  |  | 86.1 | 4.9 | Cc1nc(-c2ccc(C[C@H](NC(=O)c3c(F)cc(N4CCOC[C@@H]4C(F)(F)F)cc3F)C(=O)O)cc2)c(=O)n(C)c1C [Example 38] |
| 58.9 | 0.7 |  |  | CC[C@@H](Nc1cc(F)c(C(=O)N[C@@H](Cc2ccc(-n3c(=O)c4ccncc4n(C)c3=O)nc2)C(=O)O)c(F)c1F)C(F)(F)F [Example 17, (S)-3-(6-(1-methyl-2,4-dioxo-1,4-dihydropyrido[3,4-d]pyrimidin-3(2H)-yl)pyridin-3-yl)-2-(2,3,6-trifluoro-4-(((R)-1,1,1-trifluorobutan-2-yl)amino)benzamido)propanoic acid] |
